Laboratory results reported in patent US20240000750A1, “METHOD FOR PREPARING CRYSTALLINE PARTICLES OF 1-(3-CYANO-1-ISOPROPYL-INDOLE-5-YL)PYRAZOLE-4-CARBOXYLIC ACID, AND PHARMACEUTICAL COMPOSITION COMPRISING SAME” (LG CHEM, LTD., priority 2020, published 2024).

Legend:
Format in all cases: physicochemical
[1] = Bulk density and tapped density of crystalline particles (flowability: Carr index, Hausner ratio)
Experimental: The tapped density and bulk density were analyzed to analyze flowability and cohesiveness. tapped density means the changed volume when the container is tapped after packing the powder, which means that the voids between particles are reduced. In addition, the porosity can be confirmed by checking the changes in bulk density (apparent density) and tapped density. In general, the flowability and cohesiveness of the granular powder were evaluated using Carr index (CI) (Carr, 1965) and Hausner ratio (HR) (Hausner, 1967).
The bulk density and tapped density of crystalline particles prepared according to Preparation Examples, Examples and Comparative Examples were measured. The bulk density is the volume when about 50 g of granular powder is put into the measuring cylinder, and the tapped density is the volume when there is no further change in volume after lightly tapping the measuring cylinder on the floor at a constant height 100 times. The bulk density refers to the volume occupied by a certain mass of powder, which refers to the sum of the volume of the powder and the volume of voids between particles as the total volume.
The flowability and cohesiveness of the granular powder were calculated by the Carr index of Equation (3) and the Hausner ratio of Equation (4) using the bulk density and tapped density measured above according to the method of Jinapong et al (2008). […]

[2] = Particle size distribution of crystalline particles, wet method, laser diffraction particle size analyzer
Experimental: The volume average particle distribution and particle size distribution of the crystalline particles prepared in Preparation Examples, Examples and Comparative Examples were measured by a wet method using a laser diffraction particle size analyzer.
It can be said that the particle size distribution is better as the values of DV10/DV50 and DV50/DV90 used as indicators are larger. Here, DV10, DV50, and DV90 mean particle diameters of particles corresponding to 10%, 50%, and 90% of the total number of particles, respectively, when the measured particles are arranged in order from smallest to largest in particle size.

[3] = Solubility in organic solvents and water

Row | Flowability and cohesiveness (in words) [1] | Particle size distribution (in words) [2] | Solubility [3] | Structure (SMILES)
1 | very good | very good | – | CC(C)n1cc(C#N)c2cc(-n3cc(C(=O)O)cn3)ccc21 [Synthesis Example 1-4, 1-(3-cyano-1-isopropyl-indol-5-yl)pyrazole-4-carboxylic acid]
2 | – | – | very low | CC(C)n1cc(C#N)c2cc(-n3cc(C(=O)O)cn3)ccc21 [compound of Formula 1, 1-(3-cyano-1-isopropyl-indol-5-yl)pyrazole-4-carboxylic acid]
